# Assays:
# Influenza A virus = test: Antiviral activity against Influenza A virus (A/Vietnam/1194/2004(H5N1)) infected in MDCK cells assessed as inhibition of viral replication by plaque reduction assay; type: functional, organism-based
# [1] = Cytotoxicity against MDCK cells by MTT assay; type: cell-based, Canis lupus familiaris; conditions: dog
# [2] = Selectivity index, ratio of CC50 for MDCK cells to IC50 for Influenza A virus (A/Vietnam/1194/2004(H5N1)); type: functional
# [3] = Cytotoxicity in human TZM-bl cells by MTT assay; type: cell-based
# Albumin = Albumin (Homo sapiens, UniProt P02768); test: Binding affinity to human serum albumin by fluorescence quenching assay; type: ADME; conditions: isolated protein
# Albumin, sequence (P02768 whole entry): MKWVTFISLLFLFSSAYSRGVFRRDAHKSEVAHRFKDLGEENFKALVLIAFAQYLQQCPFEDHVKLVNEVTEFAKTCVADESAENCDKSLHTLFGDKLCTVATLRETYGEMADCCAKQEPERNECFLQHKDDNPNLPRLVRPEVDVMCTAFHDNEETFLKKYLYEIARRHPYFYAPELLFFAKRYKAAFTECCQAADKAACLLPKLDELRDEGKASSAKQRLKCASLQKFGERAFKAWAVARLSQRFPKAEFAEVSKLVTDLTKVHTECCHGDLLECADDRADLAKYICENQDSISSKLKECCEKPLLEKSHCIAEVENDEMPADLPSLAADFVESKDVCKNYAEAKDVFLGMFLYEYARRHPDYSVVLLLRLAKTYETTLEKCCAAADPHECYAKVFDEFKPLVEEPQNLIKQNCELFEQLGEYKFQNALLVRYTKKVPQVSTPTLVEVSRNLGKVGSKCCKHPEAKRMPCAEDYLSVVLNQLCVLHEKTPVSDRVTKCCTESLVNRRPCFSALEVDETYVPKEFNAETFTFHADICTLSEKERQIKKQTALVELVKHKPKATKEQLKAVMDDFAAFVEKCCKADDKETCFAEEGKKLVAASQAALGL
# [4] = test system: Human immunodeficiency virus 1; test: Antiviral activity against HIV1 3B infected human TZM-bl cells assessed as inhibition of viral replication by luciferase reporter assay; type: functional, organism-based
# [5] = Selectivity index, ratio of CC50 for human TZM-bl cells to IC50 for HIV1 3B; type: functional
# [6] = Human immunodeficiency virus 1, 3B, TZM-bl, read-out: IC50
Compound,IC50 (Influenza A virus),CC50 [1],Ratio CC50/IC50 [2],CC50 [3],Ka (Albumin),IC50 ([4]; tzm-bl),"IC50 [4, 6]",Ratio CC50/IC50 [5]
CC(=O)N[C@H]1[C@H]([C@H](O)[C@H](O)CO)OC(C(=O)O)=C[C@@H]1NC(=N)N [ZANAMIVIR],0.12 µM,> 100 µM,>836,,,,,
COC(=O)[C@H](Cc1c[nH]c2ccccc12)N/C=C1\C(=O)C(O)=C(C(C)C)c2cc(C)c(-c3c(C)cc4c(c3O)/C(=C/N[C@@H](Cc3c[nH]c5ccccc35)C(=O)OC)C(=O)C(O)=C4C(C)C)c(O)c21,7.26 µM,> 36.3 µM,>5,22 µM,2.262 ×10³ L/mol,Not Active,,
Cc1cc2c(c(O)c1-c1c(C)cc3c(c1O)/C(=C/NCC(=O)[O-])C(=O)C(O)=C3C(C)C)/C(=C/NCC(=O)[O-])C(=O)C(O)=C2C(C)C.[Na+].[Na+],9.87 µM,> 49.3 µM,>5,,1.2462 ×10⁴ L/mol,,,
Cc1cc2c(c(O)c1-c1c(C)cc3c(c1O)/C(=C/N[C@@H](CO)C(=O)[O-])C(=O)C(O)=C3C(C)C)/C(=C/N[C@@H](CO)C(=O)[O-])C(=O)C(O)=C2C(C)C.[Na+].[Na+],45.3 µM,> 45.3 µM,>1,68.3 µM,5.7756 ×10⁴ L/mol,,2.88 µM,23.72
Cc1cc2c(c(O)c1-c1c(C)cc3c(c1O)/C(=C/N[C@H](C(=O)[O-])c1ccccc1)C(=O)C(O)=C3C(C)C)/C(=C/N[C@H](C(=O)[O-])c1ccccc1)C(=O)C(O)=C2C(C)C.[Na+].[Na+],8.06 µM,> 40.3 µM,>5,29.9 µM,1.4015 ×10⁴ L/mol,,1.45 µM,20.64
NC12CC3CC(CC(C3)C1)C2 [AMANTADINE],2.38 µM,> 220 µM,>92.59,,,,,
Cc1cc2c(c(O)c1-c1c(C)cc3c(c1O)/C(=C/NCCCCCCCC(=O)[O-])C(=O)C(O)=C3C(C)C)/C(=C/NCCCCCCCC(=O)[O-])C(=O)C(O)=C2C(C)C.[Na+].[Na+],39.5 µM,> 39.5 µM,>1,29.6 µM,2.8629 ×10⁴ L/mol,,2.84 µM,10.44
Cc1cc2c(c(O)c1-c1c(C)cc3c(c1O)/C(=C/N[C@@H](Cc1c[nH]cn1)C(=O)[O-])C(=O)C(O)=C3C(C)C)/C(=C/N[C@@H](Cc1c[nH]cn1)C(=O)[O-])C(=O)C(O)=C2C(C)C.[Na+].[Na+],41.2 µM,> 41.2 µM,>1,51.2 µM,6.7205 ×10⁴ L/mol,,1.58 µM,32.38
Cc1cc2c(c(O)c1-c1c(C)cc3c(c1O)/C(=C/N[C@@H](Cc1ccc(O)cc1)C(=O)[O-])C(=O)C(O)=C3C(C)C)/C(=C/N[C@@H](Cc1ccc(O)cc1)C(=O)[O-])C(=O)C(O)=C2C(C)C.[Na+].[Na+],37.5 µM,> 37.5 µM,>1,54.8 µM,7.5353 ×10⁴ L/mol,,1.62 µM,33.81
Cc1cc2c(c(O)c1-c1c(C)cc3c(c1O)/C(=C/N[C@@H](CC(C)C)C(=O)[O-])C(=O)C(O)=C3C(C)C)/C(=C/N[C@@H](CC(C)C)C(=O)[O-])C(=O)C(O)=C2C(C)C.[Na+].[Na+],8.46 µM,> 47.4 µM,>5.6,42.8 µM,1.3483 ×10⁴ L/mol,,1.37 µM,31.26
Cc1cc2c(c(O)c1-c1c(C)cc3c(c1O)/C(=C/NCCCCCC(=O)[O-])C(=O)C(O)=C3C(C)C)/C(=C/NCCCCCC(=O)[O-])C(=O)C(O)=C2C(C)C.[Na+].[Na+],42.3 µM,> 42.3 µM,>1,31.8 µM,3.2203 ×10⁴ L/mol,,2.09 µM,15.19
Cc1cc2c(C(C)C)c(O)c(O)c(/C=N/[C@@H](Cc3ccccc3)C(=O)[O-])c2c(O)c1-c1c(C)cc2c(C(C)C)c(O)c(O)c(/C=N/[C@@H](Cc3ccccc3)C(=O)[O-])c2c1O.[Na+].[Na+],7.79 µM,> 38.9 µM,>5,57.1 µM,1.2835 ×10⁵ L/mol,,1.77 µM,32.27
COC(=O)[C@H](CC(C)C)N/C=C1\C(=O)C(O)=C(C(C)C)c2cc(C)c(-c3c(C)cc4c(c3O)/C(=C/N[C@@H](CC(C)C)C(=O)OC)C(=O)C(O)=C4C(C)C)c(O)c21,8.63 µM,> 42.8 µM,>5,33.6 µM,7.1236 ×10³ L/mol,Not Active,,
Cc1cc2c(c(O)c1-c1c(C)cc3c(c1O)/C(=C/NCCS(=O)(=O)[O-])C(=O)C(O)=C3C(C)C)/C(=C/NCCS(=O)(=O)[O-])C(=O)C(O)=C2C(C)C.[Na+].[Na+] [MEGOSIN],8.59 µM,> 43 µM,>5,53.4 µM,1.7559 ×10⁴ L/mol,,1.24 µM,43.03
Cc1cc2c(c(O)c1-c1c(C)cc3c(c1O)/C(=C/N[C@@H](CS)C(=O)[O-])C(=O)C(O)=C3C(C)C)/C(=C/N[C@@H](CS)C(=O)[O-])C(=O)C(O)=C2C(C)C.[Na+].[Na+],43.4 µM,> 43.4 µM,>1,16.5 µM,8.2016 ×10³ L/mol,,3.73 µM,4.42
Cc1cc2c(c(O)c1-c1c(C)cc3c(c1O)/C(=C/NC(C(=O)[O-])c1ccc(O)cc1)C(=O)C(O)=C3C(C)C)/C(=C/NC(C(=O)[O-])c1ccc(O)cc1)C(=O)C(O)=C2C(C)C.[Na+].[Na+] (centres undefined),7.76 µM,> 38.8 µM,>5,22.2 µM,2.1607 ×10⁴ L/mol,,1.34 µM,16.54
Cc1cc2c(c(O)c1-c1c(C)cc3c(c1O)/C(=C/NCCCCC(=O)[O-])C(=O)C(O)=C3C(C)C)/C(=C/NCCCCC(=O)[O-])C(=O)C(O)=C2C(C)C.[Na+].[Na+],19.5 µM,> 43.8 µM,>2.25,32.9 µM,2.4288 ×10⁴ L/mol,,1.71 µM,19.25
COC(=O)C(N/C=C1\C(=O)C(O)=C(C(C)C)c2cc(C)c(-c3c(C)cc4c(c3O)/C(=C/NC(C(=O)OC)c3ccccc3)C(=O)C(O)=C4C(C)C)c(O)c21)c1ccccc1 (centres undefined),8.21 µM,> 41.1 µM,>5,31.5 µM,4.2658 ×10⁴ L/mol,Not Active,,
CCOC(=O)CN/C=C1\C(=O)C(O)=C(C(C)C)c2cc(C)c(-c3c(C)cc4c(c3O)/C(=C/NCC(=O)OCC)C(=O)C(O)=C4C(C)C)c(O)c21,9.69 µM,> 48.5 µM,>5,25.7 µM,1.9028 ×10² L/mol,Not Active,,
COC(=O)[C@H](C)N/C=C1\C(=O)C(O)=C(C(C)C)c2cc(C)c(-c3c(C)cc4c(c3O)/C(=C/N[C@@H](C)C(=O)OC)C(=O)C(O)=C4C(C)C)c(O)c21,1.16 µM,> 48.5 µM,>41.77,25.6 µM,1.0413 ×10⁴ L/mol,Not Active,,
